Experimental data as given in patent publication US20140107121A1, “OLOPATADINE COMPOSITIONS AND USES THEREOF” (Alcon Research, Ltd., priority 2009, published 2014).

Assay: Olopatadine-PDE4 Inhibitor Solubility Study
Assay type: physicochemical
Conditions: for effect on the aqueous solubility of olopatadine: 0.1-1% PDE4 inhibitor, FIGS. 1 and 2; for ratio of solubility enhancement: molecules of Compound per olopatadine molecule, straight line fit
Protocol: The following experiments were conducted to determine the effect of compounds of Formula I on the aqueous solubility of olopatadine.
Formulations with the compositions shown in Table 1 were prepared for olopatadine solubility testing as follows: ten milliliter samples of the formulations containing either 0%, 0.1%, 0.3%, or 1% of either Compound 1 (4-(3,5-Dichloropyridin-4-ylamino)-7-methoxy-8-(6-(4-methylpiperazin-1-yl)hexyloxy)quinolin-2(1H)-one) or Compound 2 (4-(3,5-Dichloropyridin-4-ylamino)-7-methoxy-8-(6-morpholinohexyloxy)quinolin-2(1H)-one) with at least 1% Olopatadine Hydrochloride as shown in Table 2 were prepared and adjusted to the target pH. […] The samples were mixed on a rocker and the pH was readjusted to the target pH after one and six days of mixing. On day seven, the samples were filtered through an Acrodisc 25 mm GXF/GHP 0.2 micron filter. The first three milliliters of filtrate were collected for final pH measurement and the next 3 milliliters of filtrate were filled into two 1.5 mL HPLC vials for the olopatadine assay (as free base) as shown below. Compound 1 was not assayed in samples A through H as an assay method was not available. Duplicate Compound 1/Olopatadine samples for the olopatadine assay were injected neat into the HPLC. Compound 2 and olopatadine were assayed in samples I, J, and K. Single Compound 2/Olopatadine samples were diluted 1/10 with 50/50 Acetonitrile/Water and injected into the UPLC.
The final pH of the filtered samples was measured with an Orion 525A+pH meter using a Ross Semimicro combination pH electrode and automatic temperature probe.
The Compound 1 and Olopatadine HPLC assay was conducted using the following conditions: • Instrument: Waters 2695 Separation Module and Waters 2487 • Variable Wavelength Ultraviolet-Visible Detector with Empower Software • Column: Phenomenex Ultracarb C8, 5 micron, 150×4.6 mm • Mobile Phase: • Solvent A=Acetonitrile • Solvent B=100 milliMolar Potassium Phosphate with 0.1% Triethylamine adjusted to pH 3.0 with NaOH/HC1 • Flowrate=1 milliliter/Minute • Gradient:
• Detection: 299 nm Ultraviolet Absorbance • Injection Volume: 20 microliters • Olopatadine Retention Time: About 6.2 minutes
The Compound 2 and Olopatadine UPLC assay was conducted using the following conditions: • Instrument: Waters ACQUITY UPLC System with TUV Detector and Empower Software • Column: Acquity UPLC BEH Shield C18, 1.7 micron, 100×2.1 mm • Mobile Phase: • Solvent A=0.1% Phosphoric Acid adjusted to pH 3.0 with NaOH/HCl • Solvent B=Acetonitrile • Flowrate=0.3 milliliter/Minute • Gradient:
• Detection: 285 nm Ultraviolet Absorbance • Injection Volume: 3 microliters • AL-53817 Retention Time: About 4.1 minutes • Olopatadine Retention Time: About 4.5 minutes
The target pH of samples E through K was 5.2 and the pH readings of the suspensions were close to this value prior to filtration. However, after filtration the solution pH was generally about 0.2 pH units higher than the suspension pH. This pH shift is commonly observed when measuring the pH of a suspension versus a solution. Duplicate samples of A through H were assayed and the duplicate values were averaged.
The milliMolar (mM) concentrations were calculated by dividing the % w/v concentrations by the molecular weight and multiplying by 10000.

solubility of the PDE4 inhibitor in the formulation (pH 7.4)	Structure (SMILES)	effect on the aqueous solubility of olopatadine	ratio of solubility enhancement
not sufficiently soluble	COc1ccc2c(Nc3c(Cl)cncc3Cl)cc(=O)[nH]c2c1OCCCCCCN1CCOCC1 [Compound 2, 4-(3,5-Dichloropyridin-4-ylamino)-7-methoxy-8-(6-morpholinohexyloxy)quinolin-2(1H)-one]	increased the aqueous solubility of olopatadine in a linear concentration dependent manner	about two molecules of the Compounds to one olopatadine molecule
	COc1ccc2c(Nc3c(Cl)cncc3Cl)cc(=O)[nH]c2c1OCCCCCCN1CCN(C)CC1 [Compound 1, 4-(3,5-Dichloropyridin-4-ylamino)-7-methoxy-8-(6-(4-methylpiperazin-1-yl)hexyloxy)quinolin-2(1H)-one]	increased the aqueous solubility of olopatadine in a linear concentration dependent manner	about two molecules of the Compounds to one olopatadine molecule
